Results taken from patent US12319652B2, “Salts and solid forms of (R)-1-(5-methoxy-1H-indol-1-yl)-N,N-dimethylpropan-2-amine” (priority 2021, dated 2025).

Legend:
[1] = Heat-up/cool down (HUCD) crystallization of compound 1 Fumarate in different solvents
Source text: Crystallisation from different solvents can be a useful method to investigate alternative polymorphic forms. This crystallisation screen of compound 1·Fumarate could also be used to identify potential conditions for future scale-up crystallisations to control the form outcome. Amorphous compound 1 fumarate (batch 1) was crystallised from several solvents (refer to Table 64). Only entries N1 AND N2 remained in solution when cooled down. The XRPD diffractograms of the rest, which delivered solids, matched monofumarate Form A when oven dried (FIG. 103).
Separate portions of compound 1 Fumarate (75 mg, 1.0 wt.) were charged to separate vessels. The appropriate solvents (750 μl) were charged to the relevant vessels and subsequent charges of the appropriate co-solvent were made to accomplish dissolution. The solutions were cooled to 18 to 23° C. and allowed to stand undisturbed, until crystallization was judged complete. After this time the products were isolated by centrifugation, washed with recycled maturation solvent, dried under reduced pressure at 40° C. and analyzed by XRPD for evidence of alternative crystalline forms (FIG. 103).

[2] = as above; remark: listed apart in the source
[3] = Heptane (5 vol) + 2-Methyl THF 380 μl
[4] = Heptane (5 vol) + 2-Propanol 120 μl
[5] = Heptane (5 vol) + Acetone 200 μl
[6] = Heptane (5 vol) + Butanol 100 μl
[7] = Heptane (5 vol) + Dichloromethane 160 μl
[8] = Heptane (5 vol) + Diethyl ether 800 μl
[9] = Heptane (5 vol) + Dioxane 240 μl
[10] = Heptane (5 vol) + Ehtyl acetate 420 μl
[11] = Heptane (5 vol) + Ethanol 180 μl
[12] = Heptane (5 vol) + Isopropyl acetate 660 μl
[13] = Heptane (5 vol) + Methylethyl ketone 100 μl
[14] = Heptane (5 vol) + Tetrahydrofuran 300 μl
[15] = no precipitant solvent (—), Toluene 800 μl

## COc1ccc2c(ccn2C[C@@H](C)[NH+](C)C)c1.O=C(O)/C=C/C(=O)O [Compound 1 fumarate, (R)-1-(5-methoxy-1H-indol-1-yl)-N,N-dimethylpropan-2-amine fumarate]
[1]; [3]
  Form XRPD (oven dried): Pattern 1
  Observations (t = 0 @ T = 20° C.): suspension
  Observations (t = 3 d @ 20° C.): suspension
[1]; [4]
  Form XRPD (oven dried): Pattern 1
  Observations (t = 0 @ T = 20° C.): suspension
  Observations (t = 3 d @ 20° C.): suspension
[1]; [5]
  Form XRPD (oven dried): Pattern 1
  Observations (t = 0 @ T = 20° C.): suspension
  Observations (t = 3 d @ 20° C.): suspension
[1]; [6]
  Form XRPD (oven dried): Pattern 1
  Observations (t = 0 @ T = 20° C.): suspension
  Observations (t = 3 d @ 20° C.): suspension
[1]; Heptane (5 vol) + CPME 800 μl
  Form XRPD (oven dried): Pattern 1
  Observations (t = 0 @ T = 20° C.): gum
  Observations (t = 3 d @ 20° C.): gum
[1]; [7]
  Observations (t = 0 @ T = 20° C.): suspension
  Observations (t = 3 d @ 20° C.): suspension
[1]; [8]
  Form XRPD (oven dried): Pattern 1
  Observations (t = 0 @ T = 20° C.): gum
  Observations (t = 3 d @ 20° C.): gum
[1]; [9]
  Observations (t = 0 @ T = 20° C.): suspension
  Observations (t = 3 d @ 20° C.): suspension
[1]; [10]
  Form XRPD (oven dried): Pattern 1
  Observations (t = 0 @ T = 20° C.): suspension
  Observations (t = 3 d @ 20° C.): suspension
[1]; [11]
  Form XRPD (oven dried): Pattern 1
  Observations (t = 0 @ T = 20° C.): suspension
[1]; [12]
  Form XRPD (oven dried): Pattern 1
  Observations (t = 0 @ T = 20° C.): suspension
  Observations (t = 3 d @ 20° C.): suspension
[1]; Heptane (5 vol) + MIBK 420 μl
  Form XRPD (oven dried): Pattern 1
  Observations (t = 0 @ T = 20° C.): suspension
  Observations (t = 3 d @ 20° C.): suspension
[1]; [13]
  Form XRPD (oven dried): Pattern 1
  Observations (t = 3 d @ 20° C.): suspension
[1]; [14]
  Form XRPD (oven dried): Pattern 1
  Observations (t = 0 @ T = 20° C.): suspension
  Observations (t = 3 d @ 20° C.): suspension
[1]; Water (5 vol) + Ethanol 80 μl
  Observations (t = 0 @ T = 20° C.): solution
[1]; [15]
  Form XRPD (oven dried): Pattern 1
  Observations (t = 0 @ T = 20° C.): gum
  Observations (t = 3 d @ 20° C.): gum
[2]; [7]
  Form XRPD (oven dried): Pattern 1
[2]; [9]
  Form XRPD (oven dried): Pattern 1
[2]; [11]
  Observations (t = 3 d @ 20° C.): suspension
[2]; [13]
  Observations (t = 0 @ T = 20° C.): suspension
[2]; Heptane (5 vol) + tert-Butylmethyl ether 300 μl
  Form XRPD (oven dried): Pattern 1
[2]; Water (5 vol) + Ethanol 80 μl
  Observations (t = 3 d @ 20° C.): solution
